Assay results taken from US12173007B2, “Imidazopyridazine IL-17 inhibitor compounds” (Janssen Pharmaceutica NV, priority 2021, dated 2024).

Assays:
[1] = molecular target: T1, IL-17A(FLAG-Tagged): IL-17RA(His-Tagged) binding (Homo sapiens, UniProt Q16552, K93Q); assay: IL-17A(FLAG-tagged):IL-17RA(His-tagged) binding disruption Eu-HTRF assay, Protocol 2; conditions: FLAG-IL-17A 1 nM; average if tested more than once
In short: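 FLAG-tagged IL-17A (1 nM final) was preincubated with compound (2-fold serial dilutions, 22 points) for 1 h at rt in PBS + 0.01% Triton X-100. 10×His-IL-17RA, Eu-anti-FLAG and D2-anti-His in buffer containing KF were then added for 2 h at rt. IC50 came from the 665/615 nm HTRF ratio fitted to a one-site competition model.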

[2] = molecular target: T1, IL-17A(FLAG-Tagged): IL-17RA(His-Tagged) binding; assay: IL-17A(FLAG-tagged):IL-17RA(His-tagged) binding disruption Eu-HTRF assay, Protocol 1; conditions: FLAG-IL-17A 2.5 nM; average if tested more than once
In short: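 Compound pre-incubated 1 h at rt with FLAG-IL-17A (2.5 nM final) in PBS/0.01% Triton X-100, then 10His-IL-17RA, Eu-anti-FLAG and D2-anti-His added with KF; 2 h at rt. HTRF 665/620 nm ratio vs concentration (22-point 2-fold series) fitted to one-site competition for IC50.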

[3] = system: IL-17A-induced G-CSF production in human normal keratinocyte (NHK); assay: NHK assay: IL-17A-induced G-CSF production in normal human keratinocytes; type: cell-based; conditions: Homo sapiens, Keratinocyte, 24 h, IL-17A 5 ng/mL, G-CSF by HTRF, average if tested more than once
In short: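 Stimulus rhIL-17A 5 ng/mL final, premixed 1 h rt with compound; adult NHK, 5% FBS, 0.2% DMSO. Viability by CellTiter-Glo vs DMSO.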

[4] = moderate-to-severe HS, seven of nine patients, open-label pilot-trial; cited from earlier work

T1 sequence (Q16552 with tags, fused parts or gaps K93Q): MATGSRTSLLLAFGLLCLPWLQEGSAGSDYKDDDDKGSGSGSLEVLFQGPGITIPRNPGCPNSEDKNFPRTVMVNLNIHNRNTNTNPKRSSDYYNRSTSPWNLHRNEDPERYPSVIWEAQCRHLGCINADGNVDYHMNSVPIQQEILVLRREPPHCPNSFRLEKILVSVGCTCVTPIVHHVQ

Row | Compound | IC50 [1] [nM] | IC50 [2] [nM] | IC50 [3] [nM] | patients achieved HiSCR [4] [%]
1 | O=C(N[C@H](c1cn2ncc(CN3CC(F)(F)C(F)(F)CNC3=O)cc2n1)C1CCC(F)(F)CC1)c1nonc1C1CC1 [Example 86, (S)-4-Cyclopropyl-N-((4,4-difluorocyclohexyl)(7-((5,5,6,6-tetrafluoro-2-oxo-1,3-diazepan-1-yl)methyl)imidazo[1,2-b]pyridazin-2-yl)methyl)-1,2,5-oxadiazole-3-carboxamide] | < 50 | < 50 | < 50 | –
2 | secukinumab | – | – | – | 78
3 | Cc1nonc1C(=O)N[C@H](c1cn2ncc([C@@H](COC3CC3)N3CC(F)(F)CNC3=O)cc2n1)C1CCC(F)(F)CC1 [Example 16, N—((S)-(7-((S)-2-Cyclopropoxy-1-(5,5-difluoro-2-oxotetrahydropyrimidin-1(2H)-yl)ethyl)imidazo[1,2-b]pyridazin-2-yl)(4,4-difluorocyclohexyl)methyl)-4-methyl-1,2,5-oxadiazole-3-carboxamide] | < 50 | < 50 | < 50 | –
